Data published in patent publication US20070117182A1, “Nucleic acids conferring transcriptional responsiveness on the RANKL gene promoter and uses thereof” (Wisconsin Alumni Research Foundation, priority 2005, published 2007).

Key:
osteopontin (OPN) = experiment: RT-PCR of osteopontin control gene in treated ST2 cells; assay type: cell-based, mouse; conditions: up to 24 hours
Experimental: FIG. 2. Induction of RANKL in ST2 cells by hormones and cytokines. ST2 cells were treated with the agents indicated for periods up to 24 hours. Total RNA was isolated and subjected to RT-PCR using a primer set to mouse RANKL and beta-actin. Positive vitamin D target control genes include Cyp24 and osteopontin (OPN).
The inventors first established a model in which RANKL is both induced in response to 1,25(OH)2D3, PTH (forskolin) and oncostatin M (OSM), and is capable of supporting osteoclast formation when co-cultured with bone marrow monocyte- or spleen cell-derived osteoclast precursors. While a number of cell types express RANKL and induce osteoclastogenesis, the historical literature strongly supports mouse ST2 cells in this capacity, prompting the inventors to focus on this stromal/preosteoblastic line for initial studies. […] Each of these components is known to both induce RANKL expression and promote osteoclast formation as well. […] Indeed, GC effects are widely observed. […] The ability of GCs to enhance osteoclast formation in coculture assays in the presence of 1,25(OH)2D3, however, is likely due also to its coordinate ability to suppress OPG.

[1] = test system: D5 region of the RANKL gene (RL-CCL); experiment: pTK-RL(D5) luciferase reporter in ST2 cells; assay type: cell-based, mouse; conditions: 24 hours, agent alone
Experimental: FIG. 6. Transcriptional activity of the D5 regions of the RANKL gene in the context of the TK promoter. Sequence surrounding the D5 region (1072 bp) was cloned into the pTK-luciferase vector and termed pTK-RL(D5). […] Cells were harvested after 24 hours and luciferase activity assessed. B) ST2 cells were transfected as in A above but without the VDR expression vector and evaluated as in A. C) COS-7 cells were transfected and evaluated as in A above. Luciferase was normalized using beta-gal activity. Data represent the mean of triplicate determinations (SEM). The pTK-luc control vector was unresponsive to any of the inducers (see FIG. 9). *, p<0.05 vs no treatment control.
FIG. 11. […] A) Coordinates of the RL-D5 and the RL-D5b regions in the mouse RANKL upstream region. ST2 cells were transfected with either B) pTK-luc or pTK-mRL-D5 or C) pTK-luc and pTK-mRL-D5b and then treated with the indicated inducers. Cells were harvested after 24 hours and evaluated for luciferase activity. Luciferase was normalized using β-gal activity. Data represent the mean of triplicate determinations (SEM). *, p<0.05 vs no treatment control. **, p<0.05 vs no treatment and 1,25(OH)2D3 treated controls.
The activity of an enhancer must be evaluated in the context of its local environment, preferentially in the context of both other enhancers and its native promoter. In the case of the RANKL gene, however, this is clearly not possible due to the numbers and the distant locations of the potential regulatory regions. To tackle this problem, the inventors isolated approximately 800 to 1100 bp fragments of each region (D1 to D5) as identified through the ChIP/Chip analysis, cloned each into a luciferase expression vector under the control of a viral thymidine kinase (TK) minimal promoter, and explored the 1,25(OH)2D3- and GC-inducible activity of each following transfection into ST2 cells. […] Nevertheless, positive results provide added support for the potential regulatory capabilities of an individual DNA fragment even when examined in isolation. […] This induction was magnified by the addition of a VDR expression vector (FIG. 6a), but was also evident in the absence of such addition (FIG. 6b). […] To ensure that the viral TK promoter background was not contributing to our evaluation, the inventors cloned the mouse RANKL promoter (−100 to +65) into pGL3, inserted RL D5 and evaluated its activity in ST2 cells as well.
Based upon the above data, the inventors explored the possibility that similar to 1,25(OH)2D3, forskolin, PGE2 and OSM might be capable of activating transcription via the D5 fragment of the RANKL gene. […] Cells were harvested 24 hours later and evaluated for luciferase activity as in the previous experiments. […]

D5 fragment in MC-3T3-E1 = experiment: pRL-D5/TK-luc reporter in MC-3T3-E1 cells; assay type: cell-based; conditions: osteoblast mouse cell line MC-3T3-E1, which does not produce RANKL
RANKL = experiment: RT-PCR of RANKL in MG-63 cells; assay type: cell-based, human
Experimental: FIG. 14. […] Cells were treated with the indicated inducers for the periods identified and isolated RNA subjected to PCR analysis for Cyp24, RANKL and b-actin. B) 1,25(OH)2D3 induces VDR binding to the conserved D5 region of the human RANKL gene in MG-63 cells. […] Two different primer sets to the human D5 region were used to assess VDR binding. VDR binding was also observed at D3-D1 but not in intervening regions or at the TSS. C) The human D5 region is transcriptionally active in MG-63 cells. […] Luciferase activity was analysed 24 hours later. […] Data are the average of triplicate determinations, SEM.
The isolated RNA was then subjected to RT-PCR analysis using primers to a control gene (β-actin), a known vitamin D induced gene (Cyp24) and RANKL. […] These and additional data using other hormonal regulators are identical to that observed in mouse cells and it therefore appears likely that human RANKL is regulated in a fashion similar to that in mouse.

C=C1/C(=C\C=C2/CCC[C@]3(C)[C@@H]([C@H](C)CCCC(C)(C)O)CC[C@@H]23)C[C@@H](O)C[C@@H]1O [1,25(OH)2D3]
osteopontin (OPN) induction (osteopontin (OPN)): induced in a time-dependent manner | luciferase activity via D5 (RL-CCL), TK promoter [1]: typical and rather striking dose response | stimulation via the D5 fragment in MC-3T3-E1 (D5 fragment in MC-3T3-E1): failed to stimulate | RANKL expression (RT-PCR) (RANKL): upregulated
